The numbers were not newly measured in article PMC3237771 (Biomacromolecules, 2011), which cites them from elsewhere.

The structures appear in SMILES notation.

The conditions of this data set: aqueous buffer; no reference given.

For `N=c1c[n+](N2CCOCC2)[n-]o1` [SIN-1, 3-morpholinosydnonimine], the “Half-life in aqueous environments” value is < 10 h.
